We go through 33 compounds from patent US20220144838A1, “Compounds as Inhibitors of Macrophage Migration Inhibitory Factor” (NANJING IMMUNOPHAGE BIOTECH CO., LTD., priority 2019, published 2022).

The target in the test is T1, MIF (Homo sapiens, UniProt P14174).
T1 sequence (P14174 2-115 limits assumed): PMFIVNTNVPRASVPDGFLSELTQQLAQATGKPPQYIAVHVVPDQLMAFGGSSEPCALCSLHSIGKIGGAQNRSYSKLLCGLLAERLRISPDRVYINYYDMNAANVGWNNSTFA
Description: MIF tautomerase assay using pHPP as substrate. The class given is biochemical. To be noted: inhibition of the MIF enzyme in vitro; mean of multiple test results; read-out: Tautomerase Inhibition pIC50 (converted). The method in brief:
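Cell-free keto-to-enol tautomerization of pHPP, enol product detected spectrophotometrically as borate complex. Final 3 nM MIF and 1.5 mM ketonic pHPP in DPBS/boric acid buffer with 0.025% BSA and 300 μM CHAPS, pH 6.0, room temperature; initial rates from absorbance slopes give mean pIC50.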
In the case of `CCC(C(=O)O)n1cnc2c(-n3ncc4ccccc43)nc(N3CCN(c4ccc(O)cn4)CC3)nc21` (stereo not drawn) [Example 142, 2-(2-(4-(5-hydroxypyridin-2-yl)piperazin-1-yl)-6-(1H-indazol-1-yl)-9H-purin-9-yl)butanoic acid], the IC50 is 10 to 97.7 nM.
Take `CN(C)Cc1cccc2c1cnn2-c1nc(N2CCN(c3ccc(O)cc3)CC2)nc2c1ncn2CC(=O)O` [Example 143, 2-(6-(4-((dimethylamino)methyl)-1H-indazol-1-yl)-2-(4-(4-hydroxyphenyl)piperazin-1-yl)-9H-purin-9-yl)acetic acid]: the IC50 is 100 to 977 nM.
The result for `CN(C)Cc1cccc2c1cnn2-c1nc(N2CCN(c3ccc(O)cn3)CC2)nc2c1ncn2CC(=O)O` [Example 144, 2-(6-(4-((dimethylamino)methyl)-1H-indazol-1-yl)-2-(4-(5-hydroxypyridin-2-yl)piperazin-1-yl)-9H-purin-9-yl)acetic acid] reads 100 to 977 nM; that for `CC(C(=O)O)n1cnc2c(-n3ncc4ccccc43)nc(N3CCN(c4ccc(O)cn4)CC3)nc21` (stereo not drawn) [Example 145, 2-(2-(4-(5-hydroxypyridin-2-yl)piperazin-1-yl)-6-(1H-indazol-1-yl)-9H-purin-9-yl)propanoic acid], 10 to 97.7 nM; that for `O=C(O)CCCn1cnc2c(-n3ncc4ccccc43)nc(N3CCN(c4ccc(O)cc4)CC3)nc21` [Example 146, 4-(2-(4-(4-hydroxyphenyl)piperazin-1-yl)-6-(1H-indazol-1-yl)-9H-purin-9-yl)butanoic acid], 10 to 97.7 nM.
Then `C=CCc1nn(-c2nc(N3CCN(c4ccc(O)cc4)CC3)nc3c2ncn3CC(=O)O)c2ccccc12` [Example 147, 2-(6-(3-allyl-1H-indazol-1-yl)-2-(4-(4-hydroxyphenyl)piperazin-1-yl)-9H-purin-9-yl)acetic acid], with 1000 to 9770 nM.
Then `O=C(O)CCCCn1cnc2c(-n3ncc4ccccc43)nc(N3CCN(c4ccc(O)cn4)CC3)nc21` [Example 149, 5-(2-(4-(5-hydroxypyridin-2-yl)piperazin-1-yl)-6-(1H-indazol-1-yl)-9H-purin-9-yl)pentanoic acid], with 10 to 97.7 nM; and `O=C(O)CCCCn1cnc2c(-n3ncc4ccccc43)nc(N3CCN(c4ccc(O)cc4)CC3)nc21` [Example 150, 5-(2-(4-(4-hydroxyphenyl)piperazin-1-yl)-6-(1H-indazol-1-yl)-9H-purin-9-yl)pentanoic acid], with 10 to 97.7 nM.
Turning to `O=C(O)C(CC1CC1)n1cnc2c(-n3ncc4ccccc43)nc(N3CCN(c4ccc(O)cn4)CC3)nc21` (stereo not drawn) [Example 151, 3-cyclopropyl-2-(2-(4-(5-hydroxypyridin-2-yl)piperazin-1-yl)-6-(1H-indazol-1-yl)-9H-purin-9-yl)propanoic acid], the IC50 is 10 to 97.7 nM.
Then `OCCn1cnc2c(-n3nc(CO)c4ccccc43)nc(N3CCN(c4ccc(O)cc4)CC3)nc21` [Example 152, 4-(4-(9-(2-hydroxyethyl)-6-(3-(hydroxymethyl)-1H-indazol-1-yl)-9H-purin-2-yl)piperazin-1-yl)phenol], with 10 to 97.7 nM; and `Cc1cc(N2CCN(c3nc(-n4ncc5ccccc54)c4ncn(CCO)c4n3)CC2)ccc1O` [Example 153, 4-(4-(9-(2-hydroxyethyl)-6-(1H-indazol-1-yl)-9H-purin-2-yl)piperazin-1-yl)-2-methylphenol], with 1000 to 9770 nM.
Then `OCCn1cnc2c(-n3ncc4ccccc43)nc(N3CCN(c4ccc(CO)cn4)CC3)nc21` [Example 154, 2-(2-(4-(5-(hydroxymethyl)pyridin-2-yl)piperazin-1-yl)-6-(1H-indazol-1-yl)-9H-purin-9-yl)ethan-1-ol], with over 10000 nM.
In the case of `Nc1nc(N2CCC(O)(c3ccc(O)cc3)CC2)nc2c1ncn2-c1ccncc1` [Example 155, 1-(6-amino-9-(pyridin-4-yl)-9H-purin-2-yl)-4-(4-hydroxyphenyl)piperidin-4-ol], the IC50 was 10 to 97.7 nM.
The result for `Nc1nc(N2CC=C(c3ccc(O)cc3)CC2)nc2c1ncn2-c1ccncc1` [Example 156, 4-(1-(6-amino-9-(pyridin-4-yl)-9H-purin-2-yl)-1,2,3,6-tetrahydropyridin-4-yl)phenol] reads over 10000 nM; that for `Nc1nc(N2CCC(c3ccc(O)cc3)CC2)nc2c1ncn2-c1ccncc1` [Example 157, 4-(1-(6-amino-9-(pyridin-4-yl)-9H-purin-2-yl)piperidin-4-yl)phenol], 10 to 97.7 nM.
Take `OCCn1cnc2c(-n3ncc4ccccc43)nc(N3CCC(O)(c4ccc(O)cc4)CC3)nc21` [Example 158, 1-(9-(2-hydroxyethyl)-6-(1H-indazol-1-yl)-9H-purin-2-yl)-4-(4-hydroxyphenyl)piperidin-4-ol]: the IC50 was 100 to 977 nM.
Then `OCCn1cnc2c(-n3ncc4ccccc43)nc(N3CC=C(c4ccc(O)cc4)CC3)nc21` [Example 159, 4-(1-(9-(2-hydroxyethyl)-6-(1H-indazol-1-yl)-9H-purin-2-yl)-1,2,3,6-tetrahydropyridin-4-yl)phenol], with over 10000 nM; and `Cc1nc(N2CCC(O)(c3ccc(O)cc3)CC2)nc2c1ncn2CCCCC(=O)O` [Example 160, 5-(2-(4-hydroxy-4-(4-hydroxyphenyl)piperidin-1-yl)-6-methyl-9H-purin-9-yl)pentanoic acid], with over 10000 nM.
Then `O=C(O)Cn1cnc2c(-n3ncc4ccccc43)nc(N3CCC(O)(c4ccccc4)C3)nc21` (stereo not drawn) [Example 161, 2-(2-(3-hydroxy-3-phenylpyrrolidin-1-yl)-6-(1H-indazol-1-yl)-9H-purin-9-yl)acetic acid], with over 10000 nM; and `COC(=O)CNc1nc(N2CCN(c3ccc(O)cc3)CC2)nc2c1ncn2-c1ccncc1` [Example 162, Methyl (2-(4-(4-hydroxyphenyl)piperazin-1-yl)-9-(pyridin-4-yl)-9H-purin-6-yl)glycinate], with 100 to 977 nM.
As for `O=C(O)CNc1nc(N2CCN(c3ccc(O)cc3)CC2)nc2c1ncn2-c1ccncc1` [Example 163, (2-(4-(4-hydroxyphenyl)piperazin-1-yl)-9-(pyridin-4-yl)-9H-purin-6-yl)glycine], the IC50 was 10 to 97.7 nM.
`O=C(O)C1CCN(c2nc(N3CCN(c4ccc(O)cc4)CC3)nc3c2ncn3-c2ccncc2)C1` (stereo not drawn) [Example 164, 1-(2-(4-(4-hydroxyphenyl)piperazin-1-yl)-9-(pyridin-4-yl)-9H-purin-6-yl)pyrrolidine-3-carboxylic acid]: the IC50 was 10 to 97.7 nM.
The result for `CN(CCC(=O)O)c1nc(N2CCN(c3ccc(O)cc3)CC2)nc2c1ncn2-c1ccncc1` [Example 165, 3-((2-(4-(4-hydroxyphenyl)piperazin-1-yl)-9-(pyridin-4-yl)-9H-purin-6-yl)(methyl)amino)propanoic acid] reads 10 to 97.7 nM.
Then `CN(CC(=O)O)c1nc(N2CCN(c3ccc(O)cc3)CC2)nc2c1ncn2-c1ccncc1` [Example 166, 3N-(2-(4-(4-hydroxyphenyl)piperazin-1-yl)-9-(pyridin-4-yl)-9H-purin-6-yl)-N-methylglycine], with 10 to 97.7 nM; and `O=C(O)C1CCCN1c1nc(N2CCN(c3ccc(O)cc3)CC2)nc2c1ncn2-c1ccncc1` (stereo not drawn) [Example 167, (2-(4-(4-hydroxyphenyl)piperazin-1-yl)-9-(pyridin-4-yl)-9H-purin-6-yl)proline], with 10 to 97.7 nM.
Then `O=C(O)CCN(CCO)c1nc(N2CCN(c3ccc(O)cc3)CC2)nc2c1ncn2-c1ccncc1` [Example 168, 3-((2-hydroxyethyl)(2-(4-(4-hydroxyphenyl)piperazin-1-yl)-9-(pyridin-4-yl)-9H-purin-6-yl)amino)propanoic acid], with 10 to 97.7 nM; and `CCC(CO)N(C)c1nc(N2CCN(c3ccc(O)cc3)CC2)nc2c1ncn2-c1cccnc1` (stereo not drawn) [Example 169, 4-(4-(6-((1-hydroxybutan-2-yl)(methyl)amino)-9-(pyridin-3-yl)-9H-purin-2-yl)piperazin-1-yl)phenol], with 10 to 97.7 nM.
Consider `O=C(O)C1CCCN(c2nc(N3CCN(c4ccc(O)cc4)CC3)nc3c2ncn3-c2ccncc2)C1` (stereo not drawn) [Example 170, 1-(2-(4-(4-hydroxyphenyl)piperazin-1-yl)-9-(pyridin-4-yl)-9H-purin-6-yl)piperidine-3-carboxylic acid], for which the IC50 was 10 to 97.7 nM.
Then `Oc1ccc(N2CCN(c3nc(N4C[C@H](O)[C@@H](O)C4)c4ncn(-c5ccncc5)c4n3)CC2)cc1` [Example 171, (3S,4S)-1-(2-(4-(4-hydroxyphenyl)piperazin-1-yl)-9-(pyridin-4-yl)-9H-purin-6-yl)pyrrolidine-3,4-diol], with 10 to 97.7 nM; and `CC1(C(=O)O)CCCN1c1nc(N2CCN(c3ccc(O)cc3)CC2)nc2c1ncn2-c1ccncc1` (stereo not drawn) [Example 172, 1-(2-(4-(4-hydroxyphenyl)piperazin-1-yl)-9-(pyridin-4-yl)-9H-purin-6-yl)-2-methylpyrrolidine-2-carboxylic acid], with 10 to 97.7 nM; and `OCC(CO)Nc1nc(N2CCN(c3ccc(O)cc3)CC2)nc2c1ncn2-c1ccncc1` [Example 173, 2-((2-(4-(4-hydroxyphenyl)piperazin-1-yl)-9-(pyridin-4-yl)-9H-purin-6-yl)amino)propane-1,3-diol], with 10 to 97.7 nM.
Turning to `O=C1CN(c2nc(N3CCN(c4ccc(O)cc4)CC3)nc3c2ncn3-c2ccncc2)CCN1` [Example 174, 4-(2-(4-(4-hydroxyphenyl)piperazin-1-yl)-9-(pyridin-4-yl)-9H-purin-6-yl)piperazin-2-one], the IC50 was 10 to 97.7 nM.
Then `CN1CCN(c2nc(N3CCN(c4ccc(O)cc4)CC3)nc3c2ncn3-c2ccncc2)CC1=O` [Example 175, 4-(2-(4-(4-hydroxyphenyl)piperazin-1-yl)-9-(pyridin-4-yl)-9H-purin-6-yl)-1-methylpiperazin-2-one], with 10 to 97.7 nM.
